This note sets out measurements from PubChem BioAssay (NCI).

Common to all, as to assay: growth of human tumour cells (NCI), 48 h
Assay [1] relates to BT-549 breast.
The test system of assay [2] is COLO 205 colon.
The test system of assay [3] is DU-145 prostate.
Assay [4] relates to HOP-62 NSCLC.
For assay [5], the system named is HS 578T breast.
Assay [6] deals with MALME-3M melanoma.
For assay [7], the system named is NCI-H460 lung.
In assay [8] the test system is OVCAR-4 ovarian.
Assay [9] concerns SF-268 CNS.
Assay [10] relates to SK-MEL-5 melanoma.

Values joined by “and” are separate entries in the source; they are usually repeats but may differ in a detail not shown here. Equal entries are not always repeated.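 96-well plates; 48 h exposure; 5 concentrations. Endpoints by linear interpolation between flanking doses. Not reached: highest tested concentration assigned. GI50 = concentration required for 50% inhibition of growth. TGI is the concentration that stops growth completely.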

As to `CCCn1cc(/C=N\N=C2\C(=O)Nc3ccc(C)cc32)c2ccccc21`, the GI50 in assay [1] was 1790 nM; in assay [2], 1250 nM; in [3] it was 3880 nM; in assay [4], 4170 nM; in [5], 11300 nM; in assay [6], 1880 nM. The GI50 in assay [7] was 2170 nM; in [8] it was 935 nM; in assay [9], 3330 nM; in assay [10], 2860 nM. Also, the TGI in assay [1] is 6330 nM; in assay [2], 3060 nM; in assay [3], 40600 nM; in assay [4], 25000 nM; in assay [5] it was above 100000 nM; in assay [6] it was 6030 nM. In addition, the TGI in [7] turned out to be 10600 nM; in assay [8] it was 25600 nM; in assay [9] it was 28000 nM; in assay [10], 13500 nM.

As for `COc1ccc(C2CC(c3ccc4ccccc4c3)=NN2c2nc(O)c(C3=c4cc(Cl)ccc4=NC3=O)s2)cc1` (configuration not stated), the GI50 in assay [1] is 49.9 nM and < 5 nM; in [2], 22.1 nM; in assay [3] it was 33.1 nM and < 5 nM; in [4], 25 nM and < 5 nM; in [5] it was 28.3 nM; in [6], 18.2 nM and < 5 nM. For the same molecule, the GI50 was 21.6 nM in [7]; 21.5 nM in [8]; 29.1 nM and < 5 nM in assay [9]; 17.5 nM and < 5 nM in assay [10]. The TGI was 50.3 nM in [2]; 147 nM and 200 nM in [3]; 97.3 nM in [5]; 36.3 nM and < 5 nM in [6]; 47.2 nM in assay [7]; 48.7 nM in assay [8]. In [10], the TGI is 33.7 nM and < 5 nM.

On to `C=C1C(=O)O[C@H]2[C@H]1CC/C(CNC(=O)C(C)c1ccc(CC(C)C)cc1)=C\CC[C@@]1(C)O[C@@H]21` (some centres not stated), for which the GI50 was 1800 nM in [1]; 1930 nM in [2]; 1490 nM in assay [3]; 3070 nM in assay [4]; 2240 nM in [5]; 1710 nM in assay [6]. Also, the GI50 in assay [7] was 1940 nM; in [8], 1660 nM; in assay [9] it was 1740 nM; in assay [10] it was 1710 nM. In addition, the TGI in assay [1] was 4450 nM; in assay [2], 3830 nM; in [3], 2850 nM; in [4], 12200 nM; in assay [5], 7460 nM; in assay [6], 3360 nM. For the same molecule, the TGI is 3970 nM in assay [7], 3130 nM in assay [8], 3580 nM in [9] and 3080 nM in assay [10].
